Columns and labels:
[1] = Physical stability of solid forms (accelerated aging conditions / ambient); assay type: physicochemical; conditions: 2 days at 40° C./70% RH, HT-XRPD
Protocol: Long term slurry experiments were performed by suspending compound embodiment 1s in twenty neat solvents and stirring at room temperature for two weeks and at 50° C. for one week. Upon completion of the equilibration time, the residual solids were separated from the mother liquors. The solids were dried under ambient conditions and dried under vacuum (5 mBar) before being analyzed by HT-XRPD. Subsequently, the solids were exposed to accelerated aging conditions (40° C./70% relative humidity) for two days and again analyzed by HT-XRPD.
The mother liquors of the solvent equilibration experiments performed at 50° C. were filtered at 50° C. to remove any particulate matter. The suspensions at 50° C. were filtered using 0.2 μm PTFE filters, and the solutions were placed at 5° C. and aged for 72 hours. When solids had precipitated during aging these solids were separated from the liquid, dried under ambient conditions and under vacuum, and analyzed by HT-XRPD. The remaining mother liquors were allowed to slowly evaporate and the remaining solids were analyzed by HT-XRPD. The samples in which no precipitation occurred were placed under vacuum and the dried solids were analyzed by HT-XRPD. All the solids were then exposed to AAC (2 days at 40° C./70% RH) and re-analyzed by HT-XRPD.
The cooling/evaporative crystallization experiments at μL scale were performed in a 96-well plate, using 12 neat solvents and 12 solvent mixtures and applying four temperature profiles. In each well approximately 4 mg of embodiment 1s was solid dosed. Subsequently, the crystallization solvents (80 μL) and solvent mixtures were added to reach a concentration of 50 mg/mL, and the plate, with each well individually sealed, to subsequently undergo one of the four temperature profiles. Upon completion of the temperature profile the solvents were allowed to evaporate at low ambient pressure (24 hours) and the remaining solids were analyzed by HT-XRPD before and after exposure to AAC for 2 days (40° C./70% RH).
The cooling crystallization experiments with hot filtration were performed from supersaturated solutions of compound Ex. 1 prepared at 50° C. in different solvent mixtures. The hot filtrated solutions underwent a 48-hour cooling profile. The vials in which solids had precipitated after the temperature profile were centrifuged and the solids were separated from the liquid and analyzed by HT-XRPD (after drying under vacuum). If no solids had precipitated the solutions were evaporated under vacuum and the solids analyzed by HT-XRPD. All the solids were exposed to AAC (2 days at 40° C./70% RH) and re-analyzed by HT-XRPD. […] In three experiments, an amorphous residue was recovered which after AAC crystallized to a mixture of members of embodiment 1 (1s or 1a) and 3 (3e) or became deliquescent. […]

[2] = Hygroscopicity (GVS) and static storage of embodiment 11; assay type: physicochemical
Protocol: In a hygroscopicity study of embodiment 11, it was found it to be only slightly hygroscopic, with a mass change of 0.66% between 0-90% RH in the GVS analysis as shown in FIG. 18. […] Variable temperature (VT)-XRPD was performed in order to assess the stability of embodiment 11 upon heating. […] The diffractograms of embodiment 11 before and after the VT-XRPD experiment, along with the diffractogram for embodiment 6 are shown in FIG. 24. Embodiment 11 was also subjected to static storage analysis at 40° C./75% RH for up to 48 days. The samples were analyzed by XRPD and Karl Fisher (KF) after 2 days, 5 days and 48 days.

Structure (SMILES) | physical stability after accelerated aging conditions (AAC) [1] | physical stability by XRPD on static storage ([2]; 40° C./75% RH for up to 48 days) | mass change in GVS analysis ([2]; between 0-90% RH) [%] | total water uptake (Karl Fisher) ([2]; static storage 40° C./75% RH, after 48 days) [%]
CC(C)(O)CNC(=O)Cc1nc2cnc3[nH]ccc3c2n1[C@H]1CC[C@H](CC#N)CC1 [embodiment 2, 2-(1-((1r,4r)-4-(Cyanomethyl)cyclohexyl)-1,6-dihydroimidazo[4,5-d]pyrrolo[2,3-b]pyridin-2-yl)-N-(2-hydroxy-2-methylpropyl)acetamide] | converted to embodiment 3e |  |  | 
CC(C)(O)CNC(=O)Cc1nc2cnc3[nH]ccc3c2n1[C@H]1CC[C@H](CC#N)CC1 [embodiment 5, 2-(1-((1r,4r)-4-(Cyanomethyl)cyclohexyl)-1,6-dihydroimidazo[4,5-d]pyrrolo[2,3-b]pyridin-2-yl)-N-(2-hydroxy-2-methylpropyl)acetamide] | physically unstable |  |  | 
CC(C)(O)CNC(=O)Cc1nc2cnc3[nH]ccc3c2n1[C@H]1CC[C@H](CC#N)CC1 [embodiment 11, 2-(1-((1r,4r)-4-(Cyanomethyl)cyclohexyl)-1,6-dihydroimidazo[4,5-d]pyrrolo[2,3-b]pyridin-2-yl)-N-(2-hydroxy-2-methylpropyl)acetamide] |  | remained unchanged | 0.66 | 1.2

Now from value to compound:

physical stability after accelerated aging conditions (AAC) [1] | physical stability by XRPD on static storage ([2]; 40° C./75% RH for up to 48 days) | mass change in GVS analysis ([2]; between 0-90% RH) [%] | total water uptake (Karl Fisher) ([2]; static storage 40° C./75% RH, after 48 days) [%] | Structure (SMILES)
stable solid form |  |  |  | CC(C)(O)CNC(=O)Cc1nc2cnc3[nH]ccc3c2n1[C@H]1CC[C@H](CC#N)CC1 [embodiment 6, 2-(1-((1r,4r)-4-(Cyanomethyl)cyclohexyl)-1,6-dihydroimidazo[4,5-d]pyrrolo[2,3-b]pyridin-2-yl)-N-(2-hydroxy-2-methylpropyl)acetamide]
physically stable |  |  |  | CC(C)(O)CNC(=O)Cc1nc2cnc3[nH]ccc3c2n1[C@H]1CC[C@H](CC#N)CC1 [embodiment 7, 2-(1-((1r,4r)-4-(Cyanomethyl)cyclohexyl)-1,6-dihydroimidazo[4,5-d]pyrrolo[2,3-b]pyridin-2-yl)-N-(2-hydroxy-2-methylpropyl)acetamide]

From patent US11066406B2, “Small molecule inhibitors of the JAK family of kinases” (Janssen Pharmaceutica NV, priority 2018, dated 2021)
